System: mice
Test: In vivo delivery of FLuc-mRNA lipid nanoparticles in mice, in vivo imaging (IVIS)
Details: Fluc-mRNA LNP
Protocol: After the preparation was completed, the preparation was injected intramuscularly (mice rectus femoris muscle of the thigh), intravenously (mice tail vein), or intraperitoneal injection or subcutaneous injection (subcutaneous on the back), with approximately 75 μL per mouse, for a total of 3 mice. After a certain time of injection, in vivo imaging (PerkinElmer, IVIS Lumina III) was performed. 10-15 minutes before imaging, 200 μL of 15 mg/mL D-Luciferin working solution was injected intraperitoneally, and the imaging analysis was performed using an in vivo imager.

[1] = route IH, organ: body, DSPE-PEG5000:DSPC:Chol:compound 1.40:11.15:38.95:48.50, N/P 30
[2] = route IH, organ: liver, DSPE-PEG5000:DSPC:Chol:compound 1.40:11.15:38.95:48.50, N/P 30
[3] = route IH, organ: lung, DSPE-PEG5000:DSPC:Chol:compound 1.40:11.15:38.95:48.50, N/P 30
[4] = route IH, organ: spleen, DSPE-PEG5000:DSPC:Chol:compound 1.40:11.15:38.95:48.50, N/P 30
[5] = route IM, organ: liver, formulation, molar ratio and N/P as in the table
[6] = route IM, organ: lung, formulation, molar ratio and N/P as in the table
[7] = route IM, organ: spleen, formulation, molar ratio and N/P as in the table
[8] = route IM, organ not given, formulation, molar ratio and N/P as in the table
[9] = route IV, organ: body, formulation, molar ratio and N/P as in the table
[10] = route IV, organ: liver, formulation, molar ratio and N/P as in the table
[11] = route IV, organ: lung, formulation, molar ratio and N/P as in the table
[12] = route IV, organ: spleen, formulation, molar ratio and N/P as in the table
[13] = route IM, 1 h (live), DSPE-PEG5000:DSPC:Chol:compound 1.40:11.15:38.95:48.50, N/P 30
[14] = route IM, 1 h (lung), DSPE-PEG5000:DSPC:Chol:compound 1.40:11.15:38.95:48.50, N/P 30
[15] = route IM, 1 h (spleen), DSPE-PEG5000:DSPC:Chol:compound 1.40:11.15:38.95:48.50, N/P 30
[16] = route IM, 2 h (live), DSPE-PEG5000:DSPC:Chol:compound 1.40:11.15:38.95:48.50, N/P 30
[17] = route IM, 2 h (lung), DSPE-PEG5000:DSPC:Chol:compound 1.40:11.15:38.95:48.50, N/P 30
[18] = route IM, 2 h (spleen), DSPE-PEG5000:DSPC:Chol:compound 1.40:11.15:38.95:48.50, N/P 30
[19] = route IM, 3 h (live), DSPE-PEG5000:DSPC:Chol:compound 1.40:11.15:38.95:48.50, N/P 30
[20] = route IM, 3 h (lung), DSPE-PEG5000:DSPC:Chol:compound 1.40:11.15:38.95:48.50, N/P 30
[21] = route IM, 3 h (spleen), DSPE-PEG5000:DSPC:Chol:compound 1.40:11.15:38.95:48.50, N/P 30
[22] = route IM, 6 h (live), DSPE-PEG5000:DSPC:Chol:compound 1.40:11.15:38.95:48.50, N/P 30
[23] = route IM, 6 h (lung), DSPE-PEG5000:DSPC:Chol:compound 1.40:11.15:38.95:48.50, N/P 30
[24] = route IM, 6 h (spleen), DSPE-PEG5000:DSPC:Chol:compound 1.40:11.15:38.95:48.50, N/P 30

For CCCCCCC(CCCCCC)C(=O)NCCOC(=O)C(O)CN(CCN(C)CCN(CC(O)C(=O)OCCNC(=O)C(CCCCCC)CCCCCC)CC(O)C(=O)OCCNC(=O)C(CCCCCC)CCCCCC)CC(O)C(=O)OCCNC(=O)C(CCCCCC)CCCCCC (stereo not drawn) [Compound L0362], the IVIS [1] was 1.38E+08, the “% of organ targeting” value [2] was 62.89% and the IVIS [2] was 1.80E+07. The “% of organ targeting” value [3] was 1.15%, the IVIS [3] was 3.28E+05 and the “% of organ targeting” value [4] was 33.19%. The IVIS [4] was 9.50E+06, the “% of organ targeting” value [5] was 44.30% and the IVIS [5] was 2.62E+07. For the same compound, the “% of organ targeting” value [6] was 0.77%, the IVIS [6] was 4.55E+05 and the IVIS (route IM, organ: muscle, formulation, molar ratio and N/P as in the table) was 3.43E+08. The “% of organ targeting” value [7] was 35.43% and the IVIS [7] was 2.09E+07.

CCCCCCC(CCCCCC)C(=O)NCCOC(=O)C(O)CN(CCCN(CC(O)C(=O)OCCNC(=O)C(CCCCCC)CCCCCC)CC(O)C(=O)OCCNC(=O)C(CCCCCC)CCCCCC)CCCN(CC(O)C(=O)OCCNC(=O)C(CCCCCC)CCCCCC)CC(O)C(=O)OCCNC(=O)C(CCCCCC)CCCCCC (stereo not drawn) [Compound L0363] gave an IVIS [8] of 2.08E+07, an IVIS [9] of 6.16E+09 and an IVIS [10] of 6.56E+08. It also gave an IVIS [11] of 4.56E+06 and an IVIS [12] of 9.96E+06.

With CCCCCCCCCCCCNC(=O)C(O)CN(CCCN(C)CCN(C)CCCN(CC(O)C(=O)NCCCCCCCCCCCC)CC(O)C(=O)NCCCCCCCCCCCC)CC(O)C(=O)NCCCCCCCCCCCC (stereo not drawn) [Compound L0365] the IVIS [8] was 1.24E+06.

Work on CCCCCCCCCCCCNC(=O)C(O)CN(CCCN(C)CCN(C)CCCN(CC(O)C(=O)NCCCCCCCCCCCC)CC(O)C(=O)NCCCCCCCCCCCC)CC(O)C(=O)NCCCCCCCCCCCC (stereo not drawn) [Compound L0366] yielded an IVIS [8] of 4.56E+05.

For CCCCCCC(CCCCC)C(=O)OCCCCNC(=O)C(O)CN(CCCN(C)CCCCN(CCC(O)C(=O)NCCOC(=O)C(CCCCCC)CCCCCC)C(O)C(=O)NCCCCOC(=O)C(CCCCCC)CCCCCC)CC(O)C(=O)NCCCCOC(=O)C(CCCCC)CCCCCC (stereo not drawn) [Compound L0367], the IVIS [1] was 1.65E+07, the IVIS [4] was 8.20E+03 and the IVIS [8] was 3.40E+07. For the same compound, the IVIS [9] was 4.05E+07, the “% of organ targeting” value [10] was 3.91% and the IVIS [10] was 3.83E+06. The “% of organ targeting” value [11] was 45.55%, the IVIS [11] was 4.47E+07 and the “% of organ targeting” value [12] was 37.59%. The IVIS [12] was 3.69E+07.

With CCCCCCC(CCCCCC)C(=O)OCCCCNC(=O)C(O)CN(CCN(C)CCN(CC(O)C(=O)NCCCCOC(=O)C(CCCCCC)CCCCCC)CC(O)C(=O)NCCCCOC(=O)C(CCCCCC)CCCCCC)CC(O)C(=O)NCCCCOC(=O)C(CCCCCC)CCCCCC (stereo not drawn) [Compound L0368] the “% of organ targeting” value [13] was 39.42%, the IVIS [13] was 3.95E+05 and the “% of organ targeting” value [14] was 5.12%. The IVIS [14] was 5.13E+04, the IVIS (route IM, 1 h (muscle), DSPE-PEG5000:DSPC:Chol:compound 1.40:11.15:38.95:48.50, N/P 30) was 8.19E+07 and the “% of organ targeting” value [15] was 42.92%. The IVIS [15] was 4.30E+05, the “% of organ targeting” value [16] was 70.91% and the IVIS [16] was 6.97E+06. The “% of organ targeting” value [17] was 1.59%, the IVIS [17] was 1.57E+05 and the IVIS (route IM, 2 h (muscle), DSPE-PEG5000:DSPC:Chol:compound 1.40:11.15:38.95:48.50, N/P 30) was 2.25E+08. For the same compound, the “% of organ targeting” value [18] was 26.79%, the IVIS [18] was 2.64E+06 and the “% of organ targeting” value [19] was 51.88%. For the same compound, the IVIS [19] was 5.57E+06, the “% of organ targeting” value [20] was 1.77% and the IVIS [20] was 1.89E+05. For the same compound, the IVIS (route IM, 3 h (muscle), DSPE-PEG5000:DSPC:Chol:compound 1.40:11.15:38.95:48.50, N/P 30) was 5.02E+08, the “% of organ targeting” value [21] was 27.68% and the IVIS [21] was 2.97E+06. The “% of organ targeting” value [22] was 52.87%, the IVIS [22] was 1.53E+07 and the “% of organ targeting” value [23] was 1.75%. For the same compound, the IVIS [23] was 5.04E+05, the IVIS (route IM, 6 h (muscle), DSPE-PEG5000:DSPC:Chol:compound 1.40:11.15:38.95:48.50, N/P 30) was 1.32E+08 and the “% of organ targeting” value [24] was 42.92%. The IVIS [24] was 1.24E+07, the IVIS [8] was 9.91E+07 and the IVIS [9] was 6.34E+07. The “% of organ targeting” value [10] was 18.05%, the IVIS [10] was 1.00E+07 and the “% of organ targeting” value [11] was 7.99%. The IVIS [11] was 4.43E+06, the “% of organ targeting” value [12] was 73.95% and the IVIS [12] was 4.10E+07.

With CCCCCCC(CCCCCC)C(=O)OCCCCNC(=O)C(O)CN(CCCN(CC(O)C(=O)NCCCCOC(=O)C(CCCCCC)CCCCCC)CC(O)C(=O)NCCCCOC(=O)C(CCCCCC)CCCCCC)CCCN(CC(O)C(=O)NCCCCOC(=O)C(CCCCCC)CCCCCC)CC(O)C(=O)NCCCCOC(=O)C(CCCCCC)CCCCCC (stereo not drawn) [Compound L0369] the IVIS [8] was 6.07E+07, the IVIS [9] was 1.22E+10 and the “% of organ targeting” value [10] was 98.57%. The IVIS [10] was 4.47E+09, the “% of organ targeting” value [11] was 0.75% and the IVIS [11] was 3.40E+07. For the same compound, the “% of organ targeting” value [12] was 0.68% and the IVIS [12] was 3.07E+07.

In the case of CCCCCCCCC(CCCCCC)C(=O)OCCCCCCNC(=O)C(O)CN(CCCN(C)CCCN(CC(O)C(=O)NCCCCCCOC(=O)C(CCCCCC)CCCCCCCC)CC(O)C(=O)NCCCCCCOC(=O)C(CCCCCC)CCCCCCCC)CC(O)C(=O)NCCCCCCOC(=O)C(CCCCCC)CCCCCCCC (stereo not drawn) [Compound L0370], the IVIS [8] is reported as 1.68E+07, the IVIS [9] is reported as 1.43E+07 and the “% of organ targeting” value [10] is reported as 4.65%. The IVIS [10] was 8.65E+05, the “% of organ targeting” value [11] was 17.97% and the IVIS [11] was 3.34E+06. The “% of organ targeting” value [12] was 77.39% and the IVIS [12] was 1.44E+07.

For CCCCCCCCC(CCCCCC)C(=O)OCCCCCCNC(=O)C(O)CN(CCN(C)CCN(CC(O)C(=O)NCCCCCCOC(=O)C(CCCCCC)CCCCCCCC)CC(O)C(=O)NCCCCCCOC(=O)C(CCCCCC)CCCCCCCC)CC(O)C(=O)NCCCCCCOC(=O)C(CCCCCC)CCCCCCCC (stereo not drawn) [Compound L0371], the IVIS [8] was 3.02E+07, the IVIS [9] was 1.98E+07 and the “% of organ targeting” value [10] was 8.16%. For the same compound, the IVIS [10] was 2.58E+06, the “% of organ targeting” value [11] was 8.29% and the IVIS [11] was 2.62E+06. For the same compound, the “% of organ targeting” value [12] was 83.54% and the IVIS [12] was 2.64E+07.

CCCCCCCCC(CCCCCC)C(=O)OCCCCCCNC(=O)C(O)CN(CCCN(CC(O)C(=O)NCCCCCCOC(=O)C(CCCCCC)CCCCCCCC)CC(O)C(=O)NCCCCCCOC(=O)C(CCCCCC)CCCCCCCC)CCCN(CC(O)C(=O)NCCCCCCOC(=O)C(CCCCCC)CCCCCCCC)CC(O)C(=O)NCCCCCCOC(=O)C(CCCCCC)CCCCCCCC (stereo not drawn) [Compound L0372] gave an IVIS [8] of 7.60E+06 and an IVIS (route IV, organ not given, formulation, molar ratio and N/P as in the table) of 4.83E+08.

CCCCCCCCC(CCCCCC)C(=O)NCCOC(=O)C(O)CN(CCCN(C)CCCN(CC(O)C(=O)OCCNC(=O)C(CCCCCC)CCCCCCCC)CC(O)C(=O)OCCNC(=O)C(CCCCCC)CCCCCCCC)CC(O)C(=O)OCCNC(=O)C(CCCCCC)CCCCCCCC (stereo not drawn) [Compound L0373] was tested, and the IVIS [8] was 8.38E+06, the IVIS [9] was 7.79E+07 and the “% of organ targeting” value [10] was 11.58%. The IVIS [10] was 9.41E+06, the “% of organ targeting” value [11] was 13.53% and the IVIS [11] was 1.10E+07. For the same compound, the “% of organ targeting” value [12] was 74.89% and the IVIS [12] was 6.08E+07.

With CCCCCCCCC(CCCCCC)C(=O)NCCOC(=O)C(O)CN(CCN(C)CCN(CC(O)C(=O)OCCNC(=O)C(CCCCCC)CCCCCCCC)CC(O)C(=O)OCCNC(=O)C(CCCCCC)CCCCCCCC)CC(O)C(=O)OCCNC(=O)C(CCCCCC)CCCCCCCC (stereo not drawn) [Compound L0374] the IVIS [8] was 6.46E+07.

From patent publication US12233161B1, “Lipids and lipid nanoparticle formulations” (LONGUIDE BIOPHARMA CORPORATION, priority 2024, dated 2025)
